Experimental data published in ChEMBL document CHEMBL2311326, “Synthesis and evaluation of novel sulfenamides as novel anti Methicillin-resistant Staphylococcus aureus agents” (2013).
≈ marks a conversion by molar mass, not a printed value.

Experiments:
Type in all cases: functional
[1] = tested on: Staphylococcus aureus; assay: Antimicrobial activity against methicillin-sensitive Staphylococcus aureus isolate 309-1
[2] = tested on: Staphylococcus aureus; assay: Antimicrobial activity against Staphylococcus aureus ATCC 6538
[3] = tested on: Staphylococcus aureus; assay: Antimicrobial activity against methicillin-resistant Staphylococcus aureus isolate 309-8
[4] = tested on: Staphylococcus aureus; assay: Antimicrobial activity against methicillin-resistant Staphylococcus aureus isolate 309-7
[5] = tested on: Staphylococcus aureus; assay: Antimicrobial activity against methicillin-resistant Staphylococcus aureus isolate 6-42
[6] = tested on: Staphylococcus aureus; assay: Antimicrobial activity against methicillin-resistant Staphylococcus aureus isolate 309-4
[7] = tested on: Staphylococcus aureus; assay: Antimicrobial activity against methicillin-resistant Staphylococcus aureus isolate Chaoyang
[8] = tested on: Pseudomonas aeruginosa; assay: Antimicrobial activity against Pseudomonas aeruginosa PAO1
[9] = tested on: Staphylococcus aureus; assay: Antimicrobial activity against methicillin-resistant Staphylococcus aureus
[10] = tested on: Bacillus subtilis; assay: Antimicrobial activity against Bacillus subtilis ATCC 6633

Row | SMILES | MBC [1] [µg/mL] | MIC [1] [µg/mL] | MBC [2] [µg/mL] | MIC [2] [µg/mL] | MBC [3] [µg/mL] | MIC [3] [µg/mL] | MBC [4] [µg/mL] | MIC [4] [µg/mL] | MBC [5] [µg/mL] | MIC [5] [µg/mL] | MBC [6] [µg/mL] | MIC [6] [µg/mL] | MBC [7] [µg/mL] | MIC [7] [µg/mL] | MIC [8] [µg/mL] | MIC [9] [µg/mL] | MIC [10] [µg/mL]
1 | O=[N+]([O-])c1ccc(S)cc1 | > 100 | 1.56 (≈ 10.1 µM) | > 100 | 3.13 (≈ 20.2 µM) | > 100 | 1.56 (≈ 10.1 µM) | > 100 | 1.56 (≈ 10.1 µM) | > 100 | 1.56 (≈ 10.1 µM) | > 100 | 1.56 (≈ 10.1 µM) | > 100 | 1.56 (≈ 10.1 µM) |  |  | 
2 | COC(=O)CC[C@H](N)C(=O)OC | > 100 | > 100 | > 100 | > 100 | > 100 | > 100 | > 100 | > 100 | > 100 | > 100 | > 100 | > 100 | > 100 | > 100 |  |  | 
3 | CCOC(=O)c1ccccc1SN1C(=O)C(=O)c2cc(Br)cc(Br)c21 |  |  |  |  |  |  |  |  |  |  |  |  |  |  | > 100 | 25 (≈ 51.5 µM) | > 100
4 | COC(=O)[C@H](Cc1c[nH]c2ccccc12)NSc1ccccc1[N+](=O)[O-] | > 100 | 25 (≈ 67.3 µM) | > 100 | 6.25 (≈ 16.8 µM) | > 100 | 25 (≈ 67.3 µM) | > 100 | 12.5 (≈ 33.7 µM) | > 100 | 3.13 (≈ 8.43 µM) | > 100 | 25 (≈ 67.3 µM) | > 100 | 3.13 (≈ 8.43 µM) | > 100 | 3.13 (≈ 8.43 µM) | 12.5 (≈ 33.7 µM)
5 | CCOC(=O)[C@H](Cc1c[nH]c2ccccc12)NSc1ccccc1[N+](=O)[O-] | > 100 | 12.5 (≈ 32.4 µM) | > 100 | 6.25 (≈ 16.2 µM) | > 100 | 6.25 (≈ 16.2 µM) | > 100 | 6.25 (≈ 16.2 µM) | > 100 | 1.56 (≈ 4.05 µM) | > 100 | 12.5 (≈ 32.4 µM) | > 100 | 1.56 (≈ 4.05 µM) | > 100 | 1.56 (≈ 4.05 µM) | 6.25 (≈ 16.2 µM)
6 | CC(C)OC(=O)[C@H](Cc1c[nH]c2ccccc12)NSc1ccccc1[N+](=O)[O-] | > 100 | 25 (≈ 62.6 µM) | > 100 | 6.25 (≈ 15.6 µM) | > 100 | 6.25 (≈ 15.6 µM) | > 100 | 6.25 (≈ 15.6 µM) | > 100 | 3.13 (≈ 7.84 µM) | > 100 | 25 (≈ 62.6 µM) | > 100 | 3.13 (≈ 7.84 µM) | > 100 | 3.13 (≈ 7.84 µM) | 12.5 (≈ 31.3 µM)
7 | COC(=O)[C@H](Cc1c[nH]c2ccccc12)NSc1ccccc1 |  |  |  |  |  |  |  |  |  |  |  |  |  |  | > 100 | 50 (≈ 153 µM) | 25 (≈ 76.6 µM)
8 | CCOC(=O)[C@H](Cc1c[nH]c2ccccc12)NSc1ccccc1 |  |  |  |  |  |  |  |  |  |  |  |  |  |  | > 100 | 25 (≈ 73.4 µM) | 25 (≈ 73.4 µM)
9 | CCOC(=O)[C@H](Cc1c[nH]c2ccccc12)NSc1ccc(C)cc1 |  |  |  |  |  |  |  |  |  |  |  |  |  |  | > 100 | > 100 | 25 (≈ 70.5 µM)
10 | Cc1ccc(SN[C@@H](Cc2c[nH]c3ccccc23)C(=O)OC(C)C)cc1 |  |  |  |  |  |  |  |  |  |  |  |  |  |  | > 100 | > 100 | 25 (≈ 67.8 µM)
11 | COC(=O)[C@H](Cc1c[nH]c2ccccc12)NSc1ccc([N+](=O)[O-])cc1 |  |  |  |  |  |  |  |  |  |  |  |  |  |  | > 100 | > 100 | 25 (≈ 67.3 µM)
12 | COC(=O)[C@H](Cc1c[nH]c2ccccc12)NSc1ccc([N+](=O)[O-])cc1[N+](=O)[O-] |  |  |  |  |  |  |  |  |  |  |  |  |  |  | > 100 | > 100 | 25 (≈ 60 µM)
13 | CCOC(=O)[C@H](Cc1c[nH]c2ccccc12)NSc1ccc([N+](=O)[O-])cc1[N+](=O)[O-] |  |  |  |  |  |  |  |  |  |  |  |  |  |  | > 100 | > 100 | 25 (≈ 58.1 µM)
14 | COC(=O)CC[C@H](NSc1ccccc1[N+](=O)[O-])C(=O)OC |  |  |  |  |  |  |  |  |  |  |  |  |  |  | > 100 | 12.5 (≈ 38.1 µM) | 25 (≈ 76.1 µM)
15 | CCOC(=O)CC[C@H](NSc1ccccc1[N+](=O)[O-])C(=O)OCC |  |  |  |  |  |  |  |  |  |  |  |  |  |  | > 100 | 25 (≈ 70.1 µM) | 25 (≈ 70.1 µM)
16 | COC(=O)CC[C@H](NSc1ccc([N+](=O)[O-])cc1)C(=O)OC | > 100 | 6.25 (≈ 19 µM) | > 100 | 6.25 (≈ 19 µM) | > 100 | 3.13 (≈ 9.53 µM) | > 100 | 3.13 (≈ 9.53 µM) | > 100 | 1.56 (≈ 4.75 µM) | > 100 | 6.25 (≈ 19 µM) | > 100 | 1.56 (≈ 4.75 µM) | > 100 | 1.56 (≈ 4.75 µM) | 3.13 (≈ 9.53 µM)
